Experimental data from patent US10513523B2, “Imidazopyrazines and pyrazolopyrimidines and their use as AMPA receptor modulators” (Janssen Pharmaceutica NV, priority 2015, dated 2019).

Target: GluA1o-γ8 (GRIA1o-CACNG8 fusion construct; TARP γ8 dependent AMPA receptor) (Homo sapiens (Human), UniProt P42261+Q8WXS5)
Experiment: Calcium flux assay (FLIPR), inhibition of glutamate response of GluA1o-γ8 channel
Format: cell-based
Details: HEK293 cells stably expressing GRIA1o-CACNG8 fusion; 15 μM glutamate; pIC50 = negative log of IC50 in molar; read-out: GluR1-γ8 (pIC50) (converted)
Source text: This assay was used to test compounds for their ability to inhibit TARP γ8 dependent AMPA receptor activity. The AMPA receptor is a non-selective cation channel activated by glutamate. Ionotropic glutamate receptors normally desensitize too rapidly to allow detectable calcium influx in a FLIPR assay (Strange et al. (2006). “Functional characterisation of homomeric ionotropic glutamate receptors GluR1-GluR6 in a fluorescence-based high throughput screening assay.” Comb Chem High Throughput Screen 9(2): 147-158). But, this desensitization is incomplete, and a substantial steady-state current remains in the sustained presence of glutamate (Cho et al. (2007). “Two families of TARP isoforms that have distinct effects on the kinetic properties of AMPA receptors and synaptic currents.” Neuron 55(6): 890-904).
An in vitro assay was used to determine the potency of test compounds as inhibitors of the glutamate response of the channel formed by GluA1o-γ8. To ensure a 1:1 stoichiometry of GluA10 and γ8 subunits in the expressed channel, a fusion of the cDNAs for GRIA1o and CACNG8 was used. Following Shi et al (2009) “The stoichiometry of AMPA receptors and TARPs varies by neuronal cell type.” Neuron 62(5): […]), the C-terminus of the cDNA for GRI1o was fused to the N-terminus of the cDNA for γ8. The linker sequence was […]. […] A clonal cell line in HEK293 cells stably expressing this construct, with a geneticin selection marker, was generated for use in this assay. Cell expressing the GRIA1o-CACNG8 fusion construct were grown in a monolayer in 96- or 384-well microtiter plates. They were washed with assay buffer (135 mM NaCl, 4 mM KCl, 3 mM CaCl2, 1 mM MgCl2, 5 mM glucose, 10 mM HEPES, pH 7.4, 300 mOs) using a Biotek EL405 plate washer. The cells were then loaded with a calcium-sensitive dye (Calcium-5 or Calcium-6, Molecular Devices) and the test compounds at a range of concentrations. Calcium flux following the addition of 15 μM glutamate was monitored using a Molecular Devices FLIPR Tetra.
The fluorescence in each well was normalized to the fluorescence of negative and positive control wells. […] The responses to glutamate as functions of the test compound concentrations were fitted to a four-parameter logistic function. The fitted parameter corresponding to the midpoint was taken to be the potency of inhibition of the compound.

Sequence of GluA1o-γ8 (GRIA1o-CACNG8 fusion construct; TARP γ8 dependent AMPA receptor) (P42261 other isoform, or with tags, fused parts or gaps): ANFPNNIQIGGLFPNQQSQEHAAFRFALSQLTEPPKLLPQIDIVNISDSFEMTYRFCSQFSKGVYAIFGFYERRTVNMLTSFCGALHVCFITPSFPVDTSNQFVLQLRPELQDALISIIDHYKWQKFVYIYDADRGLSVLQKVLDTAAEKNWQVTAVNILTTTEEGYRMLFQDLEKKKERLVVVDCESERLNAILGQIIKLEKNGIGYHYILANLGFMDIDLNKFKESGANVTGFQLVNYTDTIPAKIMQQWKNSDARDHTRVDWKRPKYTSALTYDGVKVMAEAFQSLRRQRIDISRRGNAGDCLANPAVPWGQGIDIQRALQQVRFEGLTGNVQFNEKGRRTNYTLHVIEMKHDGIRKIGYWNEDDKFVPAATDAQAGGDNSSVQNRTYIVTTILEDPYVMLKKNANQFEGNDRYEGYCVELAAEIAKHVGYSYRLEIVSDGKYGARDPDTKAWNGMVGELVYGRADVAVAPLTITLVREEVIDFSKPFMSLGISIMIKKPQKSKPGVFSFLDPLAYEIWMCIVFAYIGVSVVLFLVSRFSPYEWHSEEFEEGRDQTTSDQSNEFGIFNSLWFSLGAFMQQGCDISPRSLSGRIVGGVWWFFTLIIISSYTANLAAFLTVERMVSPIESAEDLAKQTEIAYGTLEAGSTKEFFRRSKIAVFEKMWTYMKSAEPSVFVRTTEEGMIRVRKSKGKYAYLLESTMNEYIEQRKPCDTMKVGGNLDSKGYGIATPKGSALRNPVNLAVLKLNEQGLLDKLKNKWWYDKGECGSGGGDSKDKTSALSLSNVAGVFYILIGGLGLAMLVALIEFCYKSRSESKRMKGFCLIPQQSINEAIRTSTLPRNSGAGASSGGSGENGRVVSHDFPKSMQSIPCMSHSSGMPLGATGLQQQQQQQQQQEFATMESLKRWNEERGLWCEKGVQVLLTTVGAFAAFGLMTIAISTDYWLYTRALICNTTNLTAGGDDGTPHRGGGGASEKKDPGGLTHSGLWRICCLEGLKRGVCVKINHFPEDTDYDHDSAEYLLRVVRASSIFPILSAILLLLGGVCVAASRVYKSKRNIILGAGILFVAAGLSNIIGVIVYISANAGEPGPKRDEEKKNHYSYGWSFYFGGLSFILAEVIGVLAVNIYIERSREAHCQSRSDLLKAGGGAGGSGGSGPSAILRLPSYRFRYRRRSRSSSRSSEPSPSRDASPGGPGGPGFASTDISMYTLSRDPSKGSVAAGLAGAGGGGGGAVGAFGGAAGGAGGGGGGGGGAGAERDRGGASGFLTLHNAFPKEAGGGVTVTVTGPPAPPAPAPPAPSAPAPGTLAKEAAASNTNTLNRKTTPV

SMILES	IC50 [nM]
CC(C)(C)c1nn2cnccc2c1-c1ccc2c(c1)CC(=O)N2 [Example 165, 5-(2-tert-Butylpyrazolo[1,5-c]pyrimidin-3-yl)indolin-2-one]	> 10000
O=C1Cc2cc(-c3c(-c4ccc(F)cc4)nc4c(N5CCC(O)C5)nccn34)ccc2N1 (stereo not shown) [Example 41, 5-[2-(4-Fluorophenyl)-8-(3-hydroxypyrrolidin-1-yl)imidazo[1,2-a]pyrazin-3-yl]indolin-2-one]	0.631
O=C1Cc2cc(-c3c(-c4ccc(F)cc4)nc4c(N5CC(CO)C5)nccn34)ccc2N1 [Example 64, 5-[2-(4-Fluorophenyl)-8-[3-(hydroxymethyl)azetidin-1-yl]imidazo[1,2-a]pyrazin-3-yl]indolin-2-one]	0.794
Cc1cnc(N2CCOCC2)n2nc(C(C)C)c(-c3ccc4c(c3)CC(=O)N4)c12 [Example 244, 5-(2-Isopropyl-4-methyl-7-morpholino-pyrazolo[1,5-c]pyrimidin-3-yl)indolin-2-one]	79.4
CS(=O)(=O)C1CN(c2nccn3c(-c4ccc5c(c4)CC(=O)N5)c(-c4ccc(F)cc4)nc23)C1 [Example 62, 5-[2-(4-Fluorophenyl)-8-(3-methylsulfonylazetidin-1-yl)imidazo[1,2-a]pyrazin-3-yl]indolin-2-one]	10
Cc1cnc(N2CCOCC2)n2nc(-c3ccccc3)c(-c3ccc4c(c3)CC(=O)N4)c12 [Example 208, 5-(4-Methyl-7-morpholino-2-phenyl-pyrazolo[1,5-c]pyrimidin-3-yl)indolin-2-one]	0.126
O=C1CN(c2nccn3c(-c4ccc5c(c4)CC(=O)N5)c(Cc4ccccc4)nc23)CCN1 [Example 38, 5-[2-Benzyl-8-(3-oxopiperazin-1-yl)imidazo[1,2-a]pyrazin-3-yl]indolin-2-one]	1
O=C1Cc2cc(-c3c(-c4ccncc4)nc4c(N5CCC(O)CC5)nccn34)ccc2N1 [Example 215, 5-[8-(4-Hydroxy-1-piperidyl)-2-(4-pyridyl)imidazo[1,2-a]pyrazin-3-yl]indolin-2-one]	39.8
O=C1Cc2cc(-c3c(-c4ccccc4)nn4c(N5CCC(F)CC5)nccc34)ccc2N1 [Example 188, 5-[7-(4-Fluoro-1-piperidyl)-2-phenyl-pyrazolo[1,5-c]pyrimidin-3-yl]indolin-2-one]	0.501
O=C1Cc2cc(-c3c(-c4ccccc4)nc4c(N5CC6(CC6)C5)nccn34)ccc2N1 [Example 80, 5-[8-(5-Azaspiro[2.3]hexan-5-yl)-2-phenyl-imidazo[1,2-a]pyrazin-3-yl]indolin-2-one]	0.631
CC(=O)N1CCN(c2nccc3c(-c4ccc5c(c4)CC(=O)N5)c(-c4ccc(F)cc4)nn23)CC1 [Example 172, 5-[7-(4-Acetylpiperazin-1-yl)-2-(4-fluorophenyl)pyrazolo[1,5-c]pyrimidin-3-yl]indolin-2-one]	0.158
COc1nccn2c(-c3ccc4[nH]c(=O)[nH]c4c3)c(-c3ccc(F)cc3)nc12 [Example 99, 5-[2-(4-Fluorophenyl)-8-methoxy-imidazo[1,2-a]pyrazin-3-yl]-1,3-dihydrobenzimidazol-2-one]	25.1
CNc1nccn2c(-c3ccc4c(c3)CC(=O)N4)c(-c3ccc(F)cc3)nc12 [Example 167, 5-[2-(4-Fluorophenyl)-8-(methylamino)imidazo[1,2-a]pyrazin-3-yl]indolin-2-one]	25.1
O=c1[nH]c2ccc(-c3c(Cc4ccccc4)nc4c(N5CCOCC5)nccn34)cc2[nH]1 [Example 22, 5-(2-Benzyl-8-morpholino-imidazo[1,2-a]pyrazin-3-yl)-1,3-dihydrobenzimidazol-2-one]	1.58
Nc1nccn2c(-c3ccc4c(c3)CC(=O)N4)c(-c3ccc(F)cc3)nc12 [Example 248, 5-[8-Amino-2-(4-fluorophenyl)imidazo[1,2-a]pyrazin-3-yl]indolin-2-one]	5010
O=C1Cc2cc(-c3c(-c4ccc(F)cc4)nc4c(N5CC[C@@H](O)[C@H](F)C5)nccn34)ccc2N1 (relative stereo) [Example 70, (trans)-5-[8-(3-Fluoro-4-hydroxy-1-piperidyl)-2-(4-fluorophenyl)imidazo[1,2-a]pyrazin-3-yl]indolin-2-one]	0.158
O=C1Cc2cc(-c3c(-c4ccccc4)nc4c(C5=CCOCC5)nccn34)ccc2N1 [Example 131, 5-(8-(3,6-Dihydro-2H-pyran-4-yl)-2-phenylimidazo[1,2-a]pyrazin-3-yl)indolin-2-one]	7.94
O=C1Cc2cc(-c3c(-c4ccc(F)cc4)nc4cnccn34)ccc2N1 [Example 135, 5-(2-(4-Fluorophenyl)imidazo[1,2-a]pyrazin-3-yl)indolin-2-one]	100
O=C(NCc1ccccc1)c1nc2c(N3CCOCC3)nccn2c1-c1ccc2[nH]c(=O)[nH]c2c1 [Example 139, N-Benzyl-8-morpholino-3-(2-oxo-1,3-dihydrobenzimidazol-5-yl)imidazo[1,2-a]pyrazine-2-carboxamide]	25.1
CC(=O)N1CCN(c2nccn3c(-c4ccc5[nH]c(=O)[nH]c5c4)c(-c4ccc(C#N)cc4)nc23)CC1 [Example 106, 4-[8-(4-Acetylpiperazin-1-yl)-3-(2-oxo-1,3-dihydrobenzimidazol-5-yl)imidazo[1,2-a]pyrazin-2-yl]benzonitrile]	5.01
CC(C)c1nn2c(N3CCOCC3)ncc(F)c2c1-c1ccc2c(c1)CC(=O)N2 [Example 235, 5-(4-Fluoro-2-isopropyl-7-morpholino-pyrazolo[1,5-c]pyrimidin-3-yl)indolin-2-one]	501

Further lines, results first:

IC50 [nM]	SMILES
0.398	O=C1Cc2cc(-c3c(-c4ccc(F)cc4)nc4c(N5CCS(=O)(=O)CC5)nccn34)ccc2N1 [Example 47, 5-[8-(1,1-Dioxo-1,4-thiazinan-4-yl)-2-(4-fluorophenyl)imidazo[1,2-a]pyrazin-3-yl]indolin-2-one]
12.6	CC(=O)N[C@@H]1CCN(c2nccn3c(-c4ccc5[nH]c(=O)[nH]c5c4)c(-c4ccc(F)cc4)nc23)C1 [Example 100, N-[(3R)-1-[2-(4-Fluorophenyl)-3-(2-oxo-1,3-dihydrobenzimidazol-5-yl)imidazo[1,2-a]pyrazin-8-yl]pyrrolidin-3-yl]acetamide]
50.1	Oc1ccc(-c2c(-c3ccc(F)cc3)nc3c(N4CCCC4)nccn23)cc1 [Example 126, 4-[2-(4-Fluorophenyl)-8-pyrrolidin-1-yl-imidazo[1,2-a]pyrazin-3-yl]phenol]
0.2	O=C1CN(c2nccn3c(-c4ccc5[nH]ncc5c4)c(-c4ccc(F)cc4)nc23)CCN1 [Example 33, 4-[2-(4-Fluorophenyl)-3-(1H-indazol-5-yl)imidazo[1,2-a]pyrazin-8-yl]piperazin-2-one]
7.94	Fc1ccc(-c2nc3c(N4CC5(COC5)C4)nccn3c2-c2ccc3[nH]ncc3c2)cc1 [Example 25, 2-[2-(4-Fluorophenyl)-3-(1H-indazol-5-yl)imidazo[1,2-a]pyrazin-8-yl]-6-oxa-2-azaspiro[3.3]heptane]
0.316	O=c1[nH]c2ccc(-c3c(-c4ccc(F)cc4)nc4c(N5CCOCC5)ncc(Cl)n34)cc2[nH]1 [Example 82, 5-[5-Chloro-2-(4-fluorophenyl)-8-morpholino-imidazo[1,2-a]pyrazin-3-yl]-1,3-dihydrobenzimidazol-2-one]
15.8	Fc1ccc(-c2nc3c(N4CCOCC4)nccn3c2-c2ccc3[nH]ccc3c2)cc1 [Example 16, 4-[2-(4-Fluorophenyl)-3-(1H-indol-5-yl)imidazo[1,2-a]pyrazin-8-yl]morpholine]
1.58	O=C1Cc2cc(-c3c(-c4ccc(F)cc4)nc4c(N5CC[C@H](O)C5)nccn34)ccc2N1 (single isomer, unassigned) [Example 53, (S*)-5-[2-(4-Fluorophenyl)-8-(3-hydroxypyrrolidin-1-yl)imidazo[1,2-a]pyrazin-3-yl]indolin-2-one]
0.0794	O=C1Cc2cc(-c3c(-c4ccc(F)cc4)nc4c(N5CCC(F)CC5)nccn34)ccc2N1 [Example 74, 5-[2-(4-Fluorophenyl)-8-(4-fluoro-1-piperidyl)imidazo[1,2-a]pyrazin-3-yl]indolin-2-one]
631	Nc1nc2cc(-c3c(-c4ccc(F)cc4)nc4c(N5CCOCC5)nccn34)ccc2[nH]1 [Example 121, 5-[2-(4-Fluorophenyl)-8-morpholino-imidazo[1,2-a]pyrazin-3-yl]-1H-benzimidazol-2-amine]
